This is an account of results in patent publication US11826369B2, “Targeting the TLK1/NEK1 axis in prostate cancer” (Board of Supervisors of Louisiana State University and …, priority 2019, dated 2023).

For series [1], the system named is recombinant human dopamine receptors (D1 and D3). The series is described as follows: Competitive radioassay with 7-Hydroxy DPAT, R-(+)-[3H] tracer. The format is binding. The settings on record: 100 nM, compared to THD.
Series [2] has as its system LNCaP, C4-2B, 22RV1, DU14, PC3, TRAMP-C2. The series is described as follows: Cell proliferation assays of PCa cell line panel. The format is cell-based. The conditions noted are these: androgen containing medium (FBS). As for the experimental part: (§1) All experiments were conducted in triplicates. […] The cells were grown for 2-3 weeks and stained with crystal violet. All experiments were conducted in triplicates. […] The cell lines used were human “normal” RWPE-1, LNCaP, (LNCaP-derivative) C4-2B, 22RV1, DU14, PC3, and mouse TRAMP-C2. FIGS. 11C and 11D show cell proliferation of LNCaP and TRAMP-C2 were determined during a 3 days incubation with different concentration of J54 (MTS assay). All experiments were conducted in triplicates. […] Representative analysis of two independent experiments are shown.
(§2) J54 in combination with anti-androgen (Bicalutamide) induces apoptosis in AS PCa cells. […] The inventors thus tested the same panel of cells in androgen containing medium (FBS) by proliferation assays. […] Note that VCaP cells were 60% inhibited by J54 alone, consistent with their elevated replication stress-driven DDR and checkpoint activation (FIG. 12E), which when suppressed with J54 could lead to apoptosis. Clonogenic assays are unable to distinguish the effects of a DNA damaging agent, which can result in either an impaired or delayed resumption of growth (cell division) or loss of viability due to increased killing of the initial population. The inventors thus measured in LNCaP and TRAMP-C2 cells the early change in cell number (MTT assay) over 72 h with J54 alone.

For series [3], the system named is RWPE1 (normal prostate) cell line. The series is described as follows: Cell proliferation assay, normal prostate cells. The format is cell-based, human. The procedure: as §1, §2
For a further series, the system named is LNCaP, VCaP and TRAMP-C2. Kind of series: Clonogenic assays of AS PCa cells. The format is cell-based. As for the experimental part: as §1, §2
In another series the test system is VCaP cells. Kind of series: Clonogenic assay, VCaP. The format is cell-based. The settings on record: J54 alone. As for the experimental part: as §1, §2
For a further series, the system named is LNCaP and TRAMP-C2 cells. Kind of series: Early change in cell number (MTT assay) over 72 h. The format is cell-based. The settings on record: J54 alone. As for the experimental part:
as §1, §2

Series [4] concerns p-Nek1-T141 in LNCaP, VCaP, TRAMP-C2. The series is described as follows: Western blots of checkpoint and apoptotic markers. The format is cell-based. The settings on record: with or without BIC, all 3 AS cell lines. The procedure: LNCaP, VCaP, and TRAMP-C2 cells from the four treatment groups as indicated were analyzed by WB for several indicators of DNA damage/apoptosis and mediators of cell cycle arrest. Representative analysis of two independent experiments for each cell line are shown
J54 with Bicalutamide suppresses the checkpoint markers and induces apoptotic markers. LNCaP, VCaP, and TRAMP-C2 are the main examples of established PCa cell lines that are initially AS, but when maintained in ADT condition, recapitulate the conversion to AI growth observed in patients, and start growing again. In the initial phase of ADT, they arrest cell division, primarily at the G1/S transition, and become quiescent, which is a protective effect from undergoing replication forks collapse upon inhibition of the licensing function of the AR. […] The inventors were also able to reproduce that the expression of TLK1B was induced in LNCaP and TRAMP-C2 following the addition of BIC. […] The VCaP cells were a little different because even without any BIC, p-ATR and p-Chk1 were already elevated. This has been observed before and attributed to a constitutive DDR activation due to the TMPRSS2-ERG fusion in these cells.

Series [5] in a line: Pharmacokinetics, plasma distribution after IP injection. The format is in vivo, mice. The source says:
FIGS. 18A-18C show pharmacokinetics plasma distribution of J54.
The inventors sought to establish if the addition of J54 could suppress the resurgence of tumor growth of LNCaP xenografts and their latter conversion to CRPC. Following formation of sizeable tumors (˜200 mm^3), castration or anti-androgens arrest the progression of LNCaP xenografts for some time (2-3 weeks), while subsequently the tumors start growing again at an accelerated rate which is refractory to ADT (AI). Therefore, the inventors injected LNCaP cells in matrigel in both flanks of NOD-SCID mice, and then randomly assigned them to four treatment groups (n=5 per group×2 independent experiments), as shown in FIGS. 13A-13C. […] The inventors should also point out that the inventors treated the mice with J54 only bi-weekly due to the favorable pharmacokinetics, where maximal plasma concentration of 100 ng/ml ([…]) were reached 2 h after IP injection, and was still present at −6 ng/ml (6 μM) after 24 h (FIG. 18A-18C).

Series [6] can be described thus: General assessment of mice following injections. The format is in vivo. The text has this:
We then did a general assessment of mice following injections of J54. […] To get a better assessment of the possible behavioral effects of J54, the inventors used C. elegans that has a simple but complete nervous system and has been well characterized for its responses to anti-psychotic drugs, including actions at serotonin or dopamine receptors.

A further series has as its system C. elegans. The series is described as follows: Behavioral assays in C. elegans. The format is in vivo. The procedure:
FIGS. 19A-19C show behavioral assays in C. elegans. In FIG. 15A, for the pharyngeal pumping assay, wild-type animals (N2 strain) were transferred to plates with diluted DMSO (Control) or drug (J-54 or trifluoperazine) at 160 μM final concentration for 90 min before quantifying pharyngeal pumping see SI methods). The inventors counted visible movement of the grinder (pharyngeal contractions) for 30 sec to obtain the pumping rate (N=45). […] Inhibition of pharyngeal pumping by trifluoperazine (TFP), a typical PTH antipsychotic, is attributed to its known activity as a dopamine and calmodulin antagonist. In FIG. 15B. foraging, regulated by serotonin and dopamine, was studied in wild-type animals evaluated in the presence of DMSO (Control) or J54 at a high dose of 160 μM vs. TFP at 40 μM. The number of omega turns (head touches body) and reversals were then counted over the next 3 min to quantify search behavior for each group (N=13 per group). […] Dopamine produces immobility in C. elegans after 2-3 hr of exposure. Antipsychotic drugs, such as haloperidol, that potently block D2 dopamine receptors largely counteract the effects of dopamine, i.e., more animals continue to move on plates that include dopamine plus drug. Wild-type animals were incubated on 60 agar plates with bacteria and diluted DMSO (Control) or J54 or haloperidol at 160 μM final concentrations. After 1 hr on these plates, they were transferred to 60 mm agar plates with bacteria that also contained dopamine (final concentration 25 mM) plus diluted DMSO (Control) or else J-54 or haloperidol at final concentrations of 160 μM. After 3 hr on the dopamine plates, the inventors examined movement and counted animals as moving if they traversed half their body length in either the forward or backward direction during a 5-sec observation period. The inventors then calculated the percentage of animals moving and repeated this experiment three times to confirm the effects of drug.
We then did a general assessment of mice following injections of J54. […]

SMILES strings stand for the structures. “And” between values parts separate entries of the source, which are not always exact repeats. Equal entries are not always repeated. “Also recorded” adds a separate entry of the source.

In the case of `c1ccc2c(c1)Sc1ccccc1N2CCN1CCOCC1` [J54, 4-(2-(10H-phenothiazin-10-yl)ethyl) morpholine], in series [1], the “antagonism of dopamine receptors” value is recorded as “very weak antagonist”. In series [2], the “concentration of maximal efficacy” value is “around 18 μM” and the inhibition of proliferation result is recorded as “weak dose-dependent inhibition”. Further, in [3], the “sensitivity of normal cells” value is “insensitive; also recorded: non-toxic to normal cells”. The “growth of colonies of LNCaP cells cultured with BIC” value in the series with LNCaP, VCaP and TRAMP-C2 is given as “suppresses the growth of androgen-dependent colonies”. In the series with VCaP cells, the “inhibition of colony formation” value worked out at 60%. In the series with LNCaP and TRAMP-C2 cells, the “change in cell number” value is reported as “actual loss in cell counts in relation to the dose”. Also, in [4], the p-Nek1-T141 level entry was “reduction in the p-Nek1-T141”. For the same compound, in series [5] (IP injection), the maximal plasma concentration was 100 ng/ml and 35 μM. Besides, the “time of maximal plasma concentration” value in series [5] (after IP injection) is given as 2 h. Further, the concentration at 24 h in [5] (mouse, plasma, IP injection) is 6 µM. Moreover, the toxicity result in series [6] (incl. gross inspection of organs at necropsy) is given as “no toxicity”. Moreover, in series [6] (mouse, in vivo), the behavioral changes result is recorded as “no behavioral changes” and the body weight result is on record as “no decrease in body weight”. In addition, the pharyngeal pumping rate entry with C. elegans (160 μM, 90 min) was “reduced the pumping rate but to a lesser extent than a much lower concentration of TFP”. Also, the toxicity to worms entry with C. elegans (prolonged exposure) is given as “not toxic to worms even after prolonged exposure”. For the same compound, the “behavioral effects attributable to DR2 activity” value in the series with C. elegans (three studies) is “much weaker behavioral effects”.
